Data on 80 compounds can be found in the METLIN SMRT retention time set (Domingo-Almenara et al. 2019).

SMILES strings stand for the structures.

The data set in a line: gradient 5% acetonitrile 3 min, to 50% in 2 min, to 85% in 15 min, held 3 min, 100 µL/min. The conditions noted are these: column: Zorbax Extend-C18 2.1 x 50 mm; eluents: water / acetonitrile, 0.1% formic acid. The essentials:
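A Zorbax Extend-C18 column (2.1 × 50 mm, 1.8 μm) run at 100 μL/min with water and acetonitrile, both containing 0.1% formic acid, separated mixtures of ~100 pure standards. The HPLC was coupled to a quadrupole time-of-flight mass spectrometer operated in positive and negative ionization mode, with dead and dwell volumes of 40 μL and 900 μL. Each retention time was taken from a computationally picked adduct peak that was then manually inspected.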
The compound `COc1ccc(-c2nc(-c3cn(-c4ccc(F)cc4)nn3)no2)cc1OC` came in with an RP-LC retention time of 960 s.

As for `Cc1cc2c(cc1NC(=O)c1ccco1)n(C)c(=O)n2C`, the RP-LC retention time came to 635 s. The figure for `Cc1nccn1Cc1nc(-c2ccc(F)c(Cl)c2)no1` is 654 s; for `O=C(CC1=CCCCC1)N1CCC(C2CCNC2)CC1` (stereo not given) it is 602 s; for `Brc1ccc(OCc2nn3c(-c4ccccn4)nnc3s2)cc1` it is 872 s. As for `O=C(Nc1nnc(Cc2cccs2)o1)c1ccc(S(=O)(=O)N2CCOCC2)cc1`, the figure is 691 s; as for `Cc1ccc(-n2c(=O)n(C)c(=O)c3cc(C(=O)Nc4ccccc4C(N)=O)cnc32)cc1`, 857 s; as for `CC(NC(=O)C1CCCN(c2cnc3nccnc3c2)C1)c1ccccn1` (stereo not given), 565 s.

In turn, `c1cc(-c2nc(CC3CCCNC3)no2)ccn1` (stereo not given) yielded an RP-LC retention time of 552 s. The figure for `Cc1ccc(-c2nc3c(C)cccn3c2Nc2ccc3c(c2)OCCO3)cc1` is 721 s. For the compound `COc1cc(CNC(=O)c2cnc(-c3ccccc3)nc2-c2ccncc2)cc(OC)c1`, the RP-LC retention time was 823 s.

`O=C(NCC1CCCO1)c1cc(-c2cccs2)nc2ccccc12` (stereo not given) yielded an RP-LC retention time of 841 s. The figure for `COc1ccc(NC(=O)N2[C@H]3CC[C@@H]2c2cncnc2C3)c(C)c1` is 634 s. The compound `CC1(O)CCOC2(CCN(Cc3cn[nH]c3-c3ccc(F)cc3)CC2)C1` (stereo not given) registered an RP-LC retention time of 714 s. The compound `CCCc1ccc(S(=O)(=O)N2CCCC2c2nc(-c3ccc(Cl)cc3)no2)cc1` (stereo not given) gave an RP-LC retention time of 1380 s. As for `OC[C@@H]1CN(Cc2ccco2)C[C@H]1c1nc(-c2ccncc2)no1`, the figure is 547 s; as for `CC(C)NC(=O)N1CCOc2ccc(CCC(=O)O)cc2C1`, 671 s. As for `COc1ccc(-c2noc(COC(=O)C3=CN(C)S(=O)(=O)N=C3C)n2)cc1`, the figure is 926 s. The figure for `Fc1ccc(OCc2nnc3sc(-c4ccccc4F)nn23)cc1` is 940 s. Take `CC(C)c1cc(-c2ccc(F)c3ccccc23)nc(N)n1`: the RP-LC retention time is 882 s.

In turn, `Cc1ccccc1CNC(=O)C1CCCN(c2ccc(=O)n(-c3cccc(Cl)c3)n2)C1` (stereo not given) yielded an RP-LC retention time of 922 s. On to `CC1=C(c2ccc(C)cc2)S(=O)(=O)N=C1N1CCC(NC(=O)Cc2cccs2)CC1`, for which the RP-LC retention time worked out at 858 s.

Turning to `O=C(C1=CN(c2cccc(F)c2)c2cc(F)ccc2S1(=O)=O)N1CCOCC1`, the RP-LC retention time came out at 755 s. The figure for `CCOc1ccccc1CNC(=O)CCc1nnc2c3cc(-c4ccc(F)cc4)nn3ccn12` is 830 s. As for `O=C(CCc1c(-c2ccc(Cl)cc2)nc2ccccn12)NCc1ccc2c(c1)OCO2`, the figure is 654 s; as for `O=C(Cn1ccc2ccc(N3CCOCC3)nc21)N1CCC(Cc2ccccc2)CC1`, 1050 s; as for `COCCN(C)C(=O)c1cc2c(s1)N(C)CCCC2`, 770 s.

Compound `COc1ccc(-c2noc(Cn3ccn(-c4cc(C)ccc4C)c(=O)c3=O)n2)cc1` displayed an RP-LC retention time of 920 s. In turn, `O=S(=O)(c1cccn2c(SCc3c(F)cccc3Cl)nnc12)N1CCCC1` yielded an RP-LC retention time of 855 s. As for `Cc1nc(-c2csc(S(=O)(=O)N3CCC(C(=O)N4CCOCC4)CC3)c2)no1`, the figure is 719 s; as for `CCCNC(=O)C1CCCN(c2ccc(SCC(=O)Nc3ccccc3C(=O)OCC)nn2)C1` (stereo not given), 750 s.

Consider `O=S(=O)(c1cccc(-c2nnc(-c3ccc(F)cc3)o2)c1)N1CCCC1`, for which the RP-LC retention time amounted to 991 s. The figure for `CN(C)CCNc1oc(COc2ccc(Cl)cc2)nc1C#N` is 641 s; for `Cc1nc2cc(N3CC(C(=O)NCc4ccc(OC(C)C)cc4)CC3=O)ccc2o1` (stereo not given) it is 778 s. The figure for `COc1ccc(N2CCN(c3cc(SCC(=O)Nc4cc(Cl)ccc4C)ncn3)CC2)cc1` is 1130 s; for `CC(C)(C)NC(=O)c1cc2c(s1)N(CC1CC1)CCCC2` it is 1200 s; for `CCC(CO)NC(=O)C(=O)NCCC1=CCCCC1` (stereo not given) it is 724 s.

Consider `COCCCNC(=O)C(C)n1nc(C)c2c(C)n(-c3ccccc3)nc2c1=O` (stereo not given), for which the RP-LC retention time is 686 s. Compound `COc1ccc(C(=O)N2CCC3(CC2)NC(=O)c2cc(C)ccc2N3C)c(OC)c1` displayed an RP-LC retention time of 754 s. For the compound `O=C(COc1ccc(F)cc1)N1CCN(CC(F)(F)F)CC1`, the RP-LC retention time was found to be 771 s. As for `COc1ccc(NC(=O)CSc2cc(C)nc(-c3cnccn3)n2)cc1Cl`, the figure is 757 s; as for `O=C(O)C1CCN(S(=O)(=O)c2cccc([N+](=O)[O-])c2)CC1`, 663 s.

The compound `CC(C)Oc1ccc(-c2noc(CN3N=NC4C(=O)N(c5cccc(Cl)c5)C(=O)C43)n2)cc1` (stereo not given) showed an RP-LC retention time of 1040 s. As to `CC(C)Cc1ccc(S(=O)(=O)N2CCN(c3ccccn3)CC2)cc1`, the RP-LC retention time was 840 s. In the case of `O=C(Nc1ccc(F)cc1)C(=O)c1ccc[nH]1`, the RP-LC retention time was 821 s. The compound `Cc1nnc2c(=O)n(CC(=O)NCc3ccccc3Cl)c3cccnc3n12` had an RP-LC retention time of 693 s. The figure for `Cc1ccc(-c2cc(C(=O)NCCC3=CCCCC3)c(C)[nH]2)cc1C` is 1120 s; for `O=C(c1nnc(-c2ccc(S(=O)(=O)N3CCCCC3)cc2)o1)N1CCCCC1` it is 956 s. As for `CCCCN1N=C(C(=O)N2CCC(C)CC2)S(=O)(=O)c2ccccc21`, the figure is 1030 s. The compound `Cc1cc(N2CCN(C)CC2)nc2ccc(NC(=O)NCc3ccco3)cc12` returned an RP-LC retention time of 564 s. `COc1ccc(NC(=O)N2CCC(n3cnc4cccnc43)CC2)cc1` registered an RP-LC retention time of 617 s.

Take `CC(C)CNC(=O)C1CCN(c2nc3ccsc3c(=O)n2-c2ccccc2)CC1`: the RP-LC retention time is 786 s.

In turn, `N=C(CC(O)COc1ccccc1-c1ccccc1)N1CCCCC1` (stereo not given) showed an RP-LC retention time of 793 s.

For `CCC(C)n1c(=O)c2ccccc2n(Cc2nc(-c3ccccc3Cl)no2)c1=O` (stereo not given), the RP-LC retention time was 1170 s. Compound `Cc1[nH]c(C(=O)N2CCC(CC(=O)NCc3cccc(F)c3)CC2)c(C)c1C(=O)OC(C)C` came in with an RP-LC retention time of 839 s.

In the case of `COc1ccccc1CNC(=O)C1CCN(S(=O)(=O)c2cn(C(C)C)cn2)CC1`, the RP-LC retention time came to 733 s. The figure for `COCc1cc2nn(CC(=O)Nc3ccc(F)cc3C)c(=O)n2c(-c2ccccc2)n1` is 826 s. As for `O=C1CCCc2nc(N3CCN(c4ccccc4F)CC3)ncc21`, the figure is 1060 s; as for `O=C(NCCc1csc(-c2cccs2)n1)C1CCN(C(=O)C2CCCCC2)CC1`, 817 s. As for `c1ccc(-c2ccc3c(c2)NC(C2Nc4cc(-c5ccccc5)ccc4O2)O3)cc1` (stereo not given), the figure is 1240 s. `O=C(NC1CCN(Cc2ccccc2)CC1)C1CCCN(C(=O)c2cccc(Cl)c2)C1` (stereo not given): the RP-LC retention time was 650 s. The figure for `O=C(N[C@H](Cc1ccccc1)C(=O)NCc1cscn1)c1cccc(F)c1` is 762 s. As for `Cc1cccnc1NC(=O)C1CCN(S(=O)(=O)c2cn(C(C)C)cn2)CC1`, the figure is 591 s. `Cc1[nH]c(C)c(S(=O)(=O)N2CCC(C(=O)Nc3ccc(F)cc3F)CC2)c1C(=O)N1CCCC1` returned an RP-LC retention time of 676 s. Take `O=[N+]([O-])c1cn2c(n1)OC[C@@H](OCc1ccc(OC(F)(F)F)cc1)C2`: the RP-LC retention time was 916 s. `CC(C)n1cnc(S(=O)(=O)N2CCCC(C(=O)Nc3cccc(F)c3)C2)c1` (stereo not given) had an RP-LC retention time of 726 s. As for `O=C(c1ccsc1)N1CCN(c2nnc3ccc(Cl)cn23)CC1`, the figure is 615 s; as for `Cc1nnsc1C(=O)N1CCC(C(=O)Nc2nccs2)CC1`, 625 s; as for `Cc1nc2nc(-c3ccc(C(C)(C)C)cc3)nn2c(C)c1CC(=O)N(CCO)Cc1ccccc1`, 982 s. Turning to `Cc1cc(C)c2c(-n3cccc3)nn(CC(=O)NCC3CCCO3)c2n1` (stereo not given), the RP-LC retention time amounted to 753 s. As for `COc1ccc2c(c1)C1(CCN(C(=O)CCc3ccccc3)C1)C(=O)N2C` (stereo not given), the figure is 850 s.

`CCOc1ccc(NC(=O)CSc2nccc(N3CCN(c4cccc(OC)c4)CC3)n2)cc1`: the RP-LC retention time worked out at 765 s. The figure for `Cc1ccc(S(=O)(=O)N2CCc3nc(-c4ccccc4)ncc3C2)c(C)c1` is 1170 s. As for `COc1ccc(C)cc1NC(=O)Cn1nc2nc(N3CCCCC3C)ccn2c1=O` (stereo not given), the figure is 840 s; as for `Cc1nc(-c2ccccc2)cc2nn(CC(=O)NC3CCCC3)c(=O)n12`, 865 s; as for `CNC(=O)[C@@H]1C[C@H](Oc2ccccc2)CN1C(=O)c1ccco1`, 670 s.

As for `Cc1ccc(Cl)cc1NC(=O)N1CCC(c2cc(N)on2)CC1`, the RP-LC retention time is 736 s. As to `COc1ccc(C(=O)N2CCC(COc3ccc(C(=O)NC(C)C)cc3)CC2)cc1`, the RP-LC retention time stood at 820 s. The figure for `CCc1ccc(C(C)NC(=O)c2nnc(-c3ccc(S(=O)(=O)N(C)C)cc3)o2)cc1` (stereo not given) is 1010 s; for `CC1(C)C(=O)N(CC(=O)N2CCN(c3ccc(F)cc3)CC2)c2ccccc21` it is 911 s.
